Read-outs that look alike come from different tables or passages of the source. Where a SMILES comes first, the peptide text is derived from it. Where no end group is shown, it is not given here. [ ]: non-standard residue; d: D form. Aib = CC(C)(N)C(=O)O
Legend:
[1] = in vivo; conditions: female, Göttingen, minipig, iv, 5 nmol/kg
Description: The aim of the study is to assess the pharmacokinetic properties of the compounds of the invention, in mini-pigs.
Göttingen mini-pigs female, 15-20 kg, purchased from Ellegaard Mini-pigs, Denmark, were housed in the Animal Unit, Novo Nordisk A/S and were kept and handled according to normal procedure in the Animal Unit. After minimum 2 weeks of acclimatization two permanent central venous catheters were implemented in vena cava caudalis in each animal. After surgery the animals were in their normal individual pens during the pharmacokinetic experiments.
Intravenous injections were given through the central short catheter, which was flushed with min 10 ml of sterile saline post administration. The test substance was dosed at 5 nmol/kg, N=3, in a volume of 0.05 ml/kg.
On day 1 the catheters are coupled to extension tubes, which will be removed at the end of day 1.
Samples were kept on wet ice until centrifugation (10 min, 4° C., 1942 g). Afterwards, plasma (min. 100 μl) was transferred immediately to Micronic tubes and kept at −20° C. until analysis. The plasma samples were analysed by an immunoaasay described below.
The plasma concentrations of the peptides with intact N-terminus were determined using a Luminescence Oxygen Chanelling Immuno-assay (LOCI). The donor beads were coated with streptavidin, while acceptor beads were conjugated with a monoclonal antibody recognizing a mid-/C-terminal epitope of the peptide. The other monoclonal antibody, specific for the N-terminus, was biotinylated. The three reactants were combined with the analyte and formed a two-sited immuno-complex. Illumination of the complex released singlet oxygen atoms from the donor beads, which were channeled into the acceptor beads and triggered chemi-luminescence which was measured in an Envision plate reader. The amount of light was proportional to the concentration of the compound.
Plasma concentration-time profiles was analysed by a non-compartmental pharmacokinetics analysis using Phoenix (Pharsight Inc., Mountain View, Calif., USA). Calculations were performed using individual concentration-time values from each animal.

[2] = tested on: Mouse monocyte/macrophage cell line, RAW 264.7; experiment: Cholesterol efflux assay (3H-cholesterol, macrophage cell line); assay type: cell-based; conditions: RAW 264.7, 4 hrs incubation, 0.1% human serum albumin, ABCA1-mediated efflux
[3] = target: human GLP-1 receptor (Homo sapiens, UniProt P43220); experiment: Functional GLP-1 receptor assay, in vitro potency (CRE luciferase; whole cells); assay type: cell-based; conditions: BHK cells expressing human GLP-1 receptor
Sequence of human GLP-1 receptor (P43220 24-463): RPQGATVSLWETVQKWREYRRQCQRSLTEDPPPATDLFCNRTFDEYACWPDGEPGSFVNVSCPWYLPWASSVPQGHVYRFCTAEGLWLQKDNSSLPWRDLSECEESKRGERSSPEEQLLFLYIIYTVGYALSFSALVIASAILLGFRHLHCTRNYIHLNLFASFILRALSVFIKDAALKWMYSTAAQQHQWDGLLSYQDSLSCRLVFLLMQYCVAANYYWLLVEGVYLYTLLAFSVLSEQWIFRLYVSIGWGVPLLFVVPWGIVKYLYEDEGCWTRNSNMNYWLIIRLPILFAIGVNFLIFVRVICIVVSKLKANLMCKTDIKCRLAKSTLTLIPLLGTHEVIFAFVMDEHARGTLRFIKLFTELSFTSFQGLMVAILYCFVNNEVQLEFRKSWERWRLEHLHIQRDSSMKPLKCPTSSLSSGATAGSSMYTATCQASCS

[4] = plasma, T1/2 Mean Value, Göttingen mini-pigs, N=3

Row | Molecule | C0 ([1]; in vivo) | Vd ([1]; in vivo) | clearance ([1]; in vivo) | half-life ([1]; in vivo, T1/2 Mean Value) | C0 ([1]; plasma) | Vd ([1]; plasma) | clearance ([1]; plasma) | half-life [1, 4] | 4 h Cholesterol Efflux Emax [2] | half-life ([1]; plasma, T1/2, mini-pigs) | EC50 ([3]; 0% HSA, read-out: GLP1R CRE luc 0% HSA EC50 Mean Value) | EC50 ([3]; GLP1R CRE luc 1% HSA EC50 Mean Value, 1% HSA)
1 | HGEGTFTSDVSSYLEGEAVKEFIAWLVEKVKEFL-NH2 [Compound 76, [Gly8,Glu23,Val25,Glu34,Lys35,Val36,Lys37]-GLP-1-(7-37)-peptidyl-Glu-Phe-Leu amide] | 136 nM | 0.0636 L/kg | 1.06 mL/h/kg | 41.7 h |  |  |  |  |  |  |  | 
2 | CC[C@H](C)[C@H](NC(=O)[C@H](Cc1ccccc1)NC(=O)[C@H](CCC(=O)O)NC(=O)[C@H](CCCCN)NC(=O)[C@@H](NC(=O)[C@H](CCCCN)NC(=O)[C@H](CCC(=O)O)NC(=O)CNC(=O)[C@H](CCC(=O)O)NC(=O)[C@H](CC(C)C)NC(=O)[C@H](Cc1ccc(O)cc1)NC(=O)[C@H](CO)NC(=O)[C@H](CO)NC(=O)[C@@H](NC(=O)[C@H](CC(=O)O)NC(=O)[C@H](CO)NC(=O)[C@@H](NC(=O)[C@H](Cc1ccccc1)NC(=O)[C@@H](NC(=O)CNC(=O)[C@H](CCC(=O)O)NC(=O)C(C)(C)NC(=O)[C@@H](N)Cc1c[nH]cn1)[C@@H](C)O)[C@@H](C)O)C(C)C)C(C)C)C(=O)N[C@@H](CCC(=O)O)C(=O)N[C@@H](Cc1c[nH]c2ccccc12)C(=O)N[C@@H](CC(C)C)C(=O)N[C@H](C(=O)N[C@@H](CCC(=O)O)C(=O)N[C@@H](CCCCN)C(=O)NC(C)(C)C(=O)N[C@@H](CCCCN)C(=O)N[C@@H](CCC(=O)O)C(=O)N[C@@H](Cc1ccccc1)C(=O)N[C@@H](CC(C)C)C(N)=O)C(C)C [Compound 49, [Aib8,Glu23,Lys24,Val25,Glu30,Glu34,Lys35,Aib36,Lys37]-GLP-1-(7-37)-peptidyl-Glu-Phe-Leu amide] (H-H[Aib]EGTFTSDVSSYLEGEKVKEFIEWLVEK[Aib]KEFL-NH2) |  |  |  |  | 131 nM | 0.0878 L/kg | 2.68 mL/h/kg | 24 h | 123% |  |  | 
3 | CC[C@H](C)[C@H](NC(=O)[C@H](Cc1ccccc1)NC(=O)[C@H](CCC(=O)O)NC(=O)[C@H](CCCCN)NC(=O)[C@@H](NC(=O)[C@H](C)NC(=O)[C@H](CCC(=O)O)NC(=O)CNC(=O)[C@H](CCC(=O)O)NC(=O)[C@H](CC(C)C)NC(=O)[C@H](Cc1ccc(O)cc1)NC(=O)[C@H](CO)NC(=O)[C@H](CO)NC(=O)[C@@H](NC(=O)[C@H](CC(=O)O)NC(=O)[C@H](CO)NC(=O)[C@@H](NC(=O)[C@H](Cc1ccccc1)NC(=O)[C@@H](NC(=O)CNC(=O)[C@H](CCC(=O)O)NC(=O)C(C)(C)NC(=O)[C@@H](N)Cc1c[nH]cn1)[C@@H](C)O)[C@@H](C)O)C(C)C)C(C)C)C(=O)N[C@@H](C)C(=O)N[C@@H](Cc1c[nH]c2ccccc12)C(=O)N[C@@H](CC(C)C)C(=O)N[C@H](C(=O)N[C@@H](CCC(=O)O)C(=O)N[C@@H](CCCCN)C(=O)NC(C)(C)C(=O)N[C@@H](CCCCN)C(=O)N[C@@H](CCC(=O)O)C(=O)N[C@@H](Cc1c[nH]cn1)C(=O)N[C@@H](CC(C)C)C(N)=O)C(C)C [Compound 4, [Aib8,Glu23,Val25,Glu34,Lys35,Aib36,Lys37]-GLP-1-(7-37)-peptidyl-Glu-His-Leu amide] (H-H[Aib]EGTFTSDVSSYLEGEAVKEFIAWLVEK[Aib]KEHL-NH2) |  |  |  |  | 72.1 nM | 0.1 L/kg | 3.31 mL/h/kg | 20.6 h | 100% | 20.6 h |  | 
4 | CC[C@H](C)[C@H](NC(=O)[C@H](Cc1ccccc1)NC(=O)[C@H](CCC(=O)O)NC(=O)[C@H](CCCCN)NC(=O)[C@@H](NC(=O)[C@H](C)NC(=O)[C@H](CCC(N)=O)NC(=O)CNC(=O)[C@H](CCC(=O)O)NC(=O)[C@H](CC(C)C)NC(=O)[C@H](Cc1ccc(O)cc1)NC(=O)[C@H](CO)NC(=O)[C@H](CO)NC(=O)[C@@H](NC(=O)[C@H](CC(=O)O)NC(=O)[C@H](CO)NC(=O)[C@@H](NC(=O)[C@H](Cc1ccccc1)NC(=O)[C@@H](NC(=O)CNC(=O)[C@H](CCC(=O)O)NC(=O)C(C)(C)NC(=O)[C@@H](N)Cc1c[nH]cn1)[C@@H](C)O)[C@@H](C)O)C(C)C)C(C)C)C(=O)N[C@@H](C)C(=O)N[C@@H](Cc1c[nH]c2ccccc12)C(=O)N[C@@H](CC(C)C)C(=O)N[C@H](C(=O)N[C@@H](CCC(=O)O)C(=O)N[C@@H](CCCCN)C(=O)NC(C)(C)C(=O)N[C@@H](CCCCN)C(=O)N[C@@H](CCC(=O)O)C(=O)N[C@@H](Cc1ccccc1)C(=O)N[C@@H](CC(C)C)C(N)=O)C(C)C [Compound 7] (H-H[Aib]EGTFTSDVSSYLEGQAVKEFIAWLVEK[Aib]KEFL-NH2) |  |  |  |  | 51.2 nM | 0.146 L/kg | 3.71 mL/h/kg | 27.3 h | 90% | 27.3 h |  | 
5 | HGEGTFTSDVSSYLEGEAVKEFIAWLVEKVKEHL-NH2 [Compound 78, [Gly8,Glu23,Val25,Glu34,Lys35,Val36,Lys37]-GLP-1-(7-37)-peptidyl-Glu-His-Leu amide] | 58.4 nM | 0.134 L/kg | 4.45 mL/h/kg | 20.6 h |  |  |  |  |  |  |  | 
6 | CC[C@H](C)[C@H](NC(=O)[C@H](Cc1ccccc1)NC(=O)[C@H](CCC(=O)O)NC(=O)[C@H](CCCCN)NC(=O)[C@@H](NC(=O)[C@H](C)NC(=O)[C@H](CCC(=O)O)NC(=O)CNC(=O)[C@H](CCC(=O)O)NC(=O)[C@H](CC(C)C)NC(=O)[C@H](Cc1ccc(O)cc1)NC(=O)[C@H](CO)NC(=O)[C@H](CO)NC(=O)[C@@H](NC(=O)[C@H](CC(=O)O)NC(=O)[C@H](CO)NC(=O)[C@@H](NC(=O)[C@H](Cc1ccccc1)NC(=O)[C@@H](NC(=O)CNC(=O)[C@H](CCC(=O)O)NC(=O)C(C)(C)NC(=O)[C@@H](N)Cc1c[nH]cn1)[C@@H](C)O)[C@@H](C)O)C(C)C)C(C)C)C(=O)N[C@@H](C)C(=O)N[C@@H](Cc1c[nH]c2ccccc12)C(=O)N[C@@H](CC(C)C)C(=O)N[C@H](C(=O)N[C@@H](CCC(=O)O)C(=O)N[C@@H](CCCCN)C(=O)NC(C)(C)C(=O)N[C@@H](CCCCN)C(=O)N[C@@H](CCC(=O)O)C(=O)N[C@@H](Cc1ccccc1)C(=O)N[C@@H](CC(C)C)C(=O)N[C@@H](CCC(=O)O)C(=O)N[C@@H](CCCCN)C(=O)N[C@H](C(=O)N[C@@H](CCCCN)C(=O)N[C@@H](CCC(=O)O)C(=O)N[C@@H](Cc1ccccc1)C(N)=O)C(C)C)C(C)C [Compound 61] |  |  |  |  | 53.3 nM | 0.27 L/kg | 5.9 mL/h/kg | 31.8 h | 82% |  |  | 
7 | HAEGTFTSDVSSYLEGEAVKEFIAWLVEKVKEFL-NH2 [Compound 67, [Glu23,Val25,Glu34,Lys35,Val36,Lys37]-GLP-1-(7-37)-peptidyl-Glu-Phe-Leu amide] |  |  |  |  | 163 nM | 0.056 L/kg | 1.17 mL/h/kg | 33 h |  |  |  | 
8 | HAEGTFTSDVSSYLEGQAAKEFIAWLVEKVKEHL-NH2 [Compound 107, [Glu34,Lys35,Val36,Lys37]-GLP-1-(7-37)-peptidyl-Glu-His-Leu amide] |  |  |  |  | 59.2 nM | 0.0615 L/kg | 8.04 mL/h/kg | 5.4 h |  |  | 0.04 nM | 0.01 nM

Source: US20150344540A1, “NOVEL GLP-1 RECEPTOR AGONISTS WITH CHOLESTEROL EFFLUX ACTIVITY” (NOVO NORDISK A/S, priority 2012, published 2015)
